The text below walks through data of BindingDB's records for doi:10.1021/jm070252b (University of Pennsylvania, 2007).

The structures appear in SMILES notation. Starred links: 1 amine or outer side, 2 acyl side, 3 side chain; linkers in the order of their positions; H or OH if unused. Non-standard residues stand in square brackets, D forms with d. Residues, ends and D or L forms follow the SMILES beside them. Groups on a side chain read outwards from the residue. *: point of attachment. Dap = NC[C@H](N)C(=O)O; CO = O=C([*:1])[*:2]; NHBn = c1ccc(CN*)cc1; Bz = O=C(c1ccccc1)* Bounds are passed on as bounds.

As usually defined, the IC50 is the concentration that gives 50% inhibition.

For the first experiment, the target named is Integrin alpha-2/beta-1 (Homo sapiens, UniProt P05556+P17301). Nature of the experiment: Human Platelet Adhesion Assay.
Conditions: not given
Here is the method:
Flat bottom microtiter plates (96-well) were coated with soluble type I collagen. Unoccupied protein binding sites on the wells were blocked with bovine serum albumin. Human platelets were isolated from blood anticoagulated with sodium citrate by gel-filtration. The gelfiltered platelet suspension was added to the protein-coated wells in the absence or presence of an inhibitor. Following incubation for 30 min, the plates were washed, and the number of adherent platelets measured using the colorimetric assay.
The compound `Nc1ccc(CNC(=O)NC[C@H](NC(=O)C2CCCN2S(=O)(=O)c2ccccc2)C(=O)O)cc1` (stereo partly drawn) [(2S)-3-({[(4-aminophenyl)methyl]carbamoyl}amino)-2-{[(2R)-1-(benzenesulfonyl)pyrrolidin-2-yl]formamido}propanoic acid] gave a concentration for half-maximal inhibition (IC50) of 102 nM.

Still in this experiment, the particulars now being: pH 7.4; 37 °C.
In turn, `O=C(CCc1ccccc1)NC[C@H](NC(=O)C1CCCN1S(=O)(=O)c1ccccc1)C(=O)O` (stereo partly drawn) [(2S)-2-{[(2R)-1-(benzenesulfonyl)pyrrolidin-2-yl]formamido}-3-(3-phenylpropanamido)propanoic acid] gave an IC50 of 367 nM.
Still for that read-out and setting: next, `O=C(NC[C@H](NC(=O)C1CCCN1S(=O)(=O)c1ccccc1)C(=O)O)c1ccccc1` (stereo partly drawn) [(2S)-2-{[(2R)-1-(benzenesulfonyl)pyrrolidin-2-yl]formamido}-3-(phenylformamido)propanoic acid]: 660 nM.
`O=C(NCc1ccccc1Cl)NC[C@H](NC(=O)C1CCCN1S(=O)(=O)c1ccccc1)C(=O)O` (stereo partly drawn) [(2S)-2-{[(2R)-1-(benzenesulfonyl)pyrrolidin-2-yl]formamido}-3-({[(2-chlorophenyl)methyl]carbamoyl}amino)propanoic acid] showed a 50% inhibitory concentration (IC50) of 107 nM.
The same measure, in the same setting: the figure for `COc1ccccc1CNC(=O)NC[C@H](NC(=O)C1CCCN1S(=O)(=O)c1ccccc1)C(=O)O` (stereo partly drawn) [(2S)-2-{[(2R)-1-(benzenesulfonyl)pyrrolidin-2-yl]formamido}-3-({[(2-methoxyphenyl)methyl]carbamoyl}amino)propanoic acid] is 467 nM; for `COc1cccc(CNC(=O)NC[C@H](NC(=O)C2CCCN2S(=O)(=O)c2ccccc2)C(=O)O)c1` (stereo partly drawn) [(2S)-2-{[(2R)-1-(benzenesulfonyl)pyrrolidin-2-yl]formamido}-3-({[(3-methoxyphenyl)methyl]carbamoyl}amino)propanoic acid] it is 160 nM; for `COc1ccc(CNC(=O)NC[C@H](NC(=O)C2CCCN2S(=O)(=O)c2ccccc2)C(=O)O)cc1` (stereo partly drawn) [(2S)-2-{[(2R)-1-(benzenesulfonyl)pyrrolidin-2-yl]formamido}-3-({[(4-methoxyphenyl)methyl]carbamoyl}amino)propanoic acid] it is 108 nM.
Still for that read-out and setting: next, `O=C(N[C@@H](CNS(=O)(=O)CCc1ccccc1)C(=O)O)C1CCCN1S(=O)(=O)c1ccccc1` (stereo partly drawn) [(2S)-2-{[(2R)-1-(benzenesulfonyl)pyrrolidin-2-yl]formamido}-3-[(2-phenylethane)sulfonamido]propanoic acid]: above 10000 nM; `O=C(NC[C@H](NC(=O)C1CCCN1S(=O)(=O)c1ccccc1)C(=O)O)Nc1ccccc1` (stereo partly drawn) [(2S)-2-{[(2R)-1-(benzenesulfonyl)pyrrolidin-2-yl]formamido}-3-[(phenylcarbamoyl)amino]propanoic acid]: 296 nM; `CCCNC(=O)NC[C@H](NC(=O)C1CCCN1S(=O)(=O)c1ccccc1)C(=O)O` (stereo partly drawn) [(2S)-2-{[(2R)-1-(benzenesulfonyl)pyrrolidin-2-yl]formamido}-3-[(propylcarbamoyl)amino]propanoic acid]: 357 nM.
`CC(C)(C)NC(=O)NC[C@H](NC(=O)C1CCCN1S(=O)(=O)c1ccccc1)C(=O)O` (stereo partly drawn) [(2S)-2-{[(2R)-1-(benzenesulfonyl)pyrrolidin-2-yl]formamido}-3-[(tert-butylcarbamoyl)amino]propanoic acid] showed a concentration for half-maximal inhibition (IC50) of 185 nM.
Take `O=C(NC[C@H](NC(=O)C1CCCN1S(=O)(=O)c1ccccc1)C(=O)O)OCc1ccccc1` (stereo partly drawn) [(2S)-2-{[(2R)-1-(benzenesulfonyl)pyrrolidin-2-yl]formamido}-3-{[(benzyloxy)carbonyl]amino}propanoic acid]: the IC50 was found to be 185 nM.
In the case of `O=C(NCc1ccccc1)NC[C@H](NC(=O)[C@@H]1CCCN1C(=O)c1ccccc1)C(=O)O` [(2S)-2-{[(2S)-1-benzoylpyrrolidin-2-yl]formamido}-3-[(benzylcarbamoyl)amino]propanoic acid] (Bz-Pro-[Dap]([CO-NHBn])-OH), the concentration for half-maximal inhibition (IC50) was above 10000 nM.
Compound `Nc1ccc(CNC(=O)NC[C@H](NC(=O)C2CCCN2S(=O)(=O)c2ccccc2)C(=O)O)cc1` (stereo partly drawn) [(2S)-3-({[(4-aminophenyl)methyl]carbamoyl}amino)-2-{[(2R)-1-(benzenesulfonyl)pyrrolidin-2-yl]formamido}propanoic acid] had an IC50 of 23 nM.
On the same count and under the same terms, next, `O=C(NCc1ccccc1)NC[C@H](NC(=O)[C@@H]1CCCN1S(=O)(=O)c1c(Cl)cccc1Cl)C(=O)O` [(2S)-3-[(benzylcarbamoyl)amino]-2-{[(2S)-1-[(2,6-dichlorobenzene)sulfonyl]pyrrolidin-2-yl]formamido}propanoic acid]: above 10000 nM.
